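Five compound concentrations were applied to cells in 96-well plates for 48 hours; endpoints were derived by simple linear interpolation of the resulting dose-response curve. TGI is the concentration that stops growth completely.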 Where a SMILES comes first, the peptide text is derived from it. The star is where a group is joined. Boc = CC(C)(C)OC(=O)*; OBn = c1ccc(CO*)cc1
system: OVCAR-4 ovarian; test: NCI-60 cell line screen, 48 h

Structure (SMILES) | TGI [µM]
Ic1ncnc2c1ncn2C1CCCO1 (stereo not drawn) | > 100
CC12CCC3[C@@H](CC3(C)C)C(O)(CCC1=O)C2 (stereo partly drawn) | > 100
COc1cc(OCc2ccc3nc(-c4ccccc4)c(Cl)nc3c2)cc(OC)c1OC | > 100
O=[n+]1c2ccccc2n([O-])c2ccccc21 | > 100
CC(C)C(NC(=O)C(Cc1ccccc1)NC(=O)OC(C)(C)C)C(=O)NCC(=O)OCc1ccccc1 (stereo not drawn) (Boc-Phe-Val-Gly-OBn; configuration not given here) | 58.8

system: UO-31 renal; test: NCI-60 cell line screen, 48 h

Structure (SMILES) | TGI [µM]
CCN(CC)c1cc2c3c(c1)CCCN3CCC2 | > 10
O=c1[nH]n(Cc2ccccc2Cl)c2ccc([N+](=O)[O-])cc12 | > 100
CCOC(=O)CCC(NC(=O)c1ccc(CNc2nc3ccccc3nc2C(=O)OCC)cc1)C(=O)OCC (stereo not drawn) | > 100
COC1CC(C)C(OC)C2=CC(=O)C=C(NC(=O)/C(C)=C/C=C\C(C)C(OC(N)=O)/C(C)=C\C(C)C1OC)C2=O (stereo not drawn) | 10.8
O=C1c2ccccc2C(O)(C(=O)O)C1(O)CC=C(Cl)Cl (stereo not drawn) | > 125
COc1cc(S(=O)(=O)Nc2nc(-c3ccc(N4C(=O)CSC4c4cccs4)cc3)cs2)ccc1Cl (stereo not drawn) | 73.4
COC(=O)C(C)NP(=O)(N1CC1)N1CC1 (stereo not drawn) | > 100
Ic1ncnc2c1ncn2C1CCCO1 (stereo not drawn) | > 100
CC12CCC3[C@@H](CC3(C)C)C(O)(CCC1=O)C2 (stereo partly drawn) | > 100
COc1cc(OCc2ccc3nc(-c4ccccc4)c(Cl)nc3c2)cc(OC)c1OC | > 100
O=[n+]1c2ccccc2n([O-])c2ccccc21 | > 100
CC(C)C(NC(=O)C(Cc1ccccc1)NC(=O)OC(C)(C)C)C(=O)NCC(=O)OCc1ccccc1 (stereo not drawn) (Boc-Phe-Val-Gly-OBn; configuration not given here) | 51.6

system: MDA-MB-231 breast; test: NCI-60 cell line screen, 48 h

Structure (SMILES) | TGI [µM]
CCN(CC)c1cc2c3c(c1)CCCN3CCC2 | > 10
O=c1[nH]n(Cc2ccccc2Cl)c2ccc([N+](=O)[O-])cc12 | > 100
CCOC(=O)CCC(NC(=O)c1ccc(CNc2nc3ccccc3nc2C(=O)OCC)cc1)C(=O)OCC (stereo not drawn) | > 100
COc1cc(S(=O)(=O)Nc2nc(-c3ccc(N4C(=O)CSC4c4cccs4)cc3)cs2)ccc1Cl (stereo not drawn) | > 100
CC12CCC3[C@@H](CC3(C)C)C(O)(CCC1=O)C2 (stereo partly drawn) | > 100
COc1cc(OCc2ccc3nc(-c4ccccc4)c(Cl)nc3c2)cc(OC)c1OC | > 100
O=[n+]1c2ccccc2n([O-])c2ccccc21 | > 100
CC(C)C(NC(=O)C(Cc1ccccc1)NC(=O)OC(C)(C)C)C(=O)NCC(=O)OCc1ccccc1 (stereo not drawn) (Boc-Phe-Val-Gly-OBn; configuration not given here) | 32.3

system: RXF 393 renal; test: NCI-60 cell line screen, 48 h

Structure (SMILES) | TGI [µM]
CCN(CC)c1cc2c3c(c1)CCCN3CCC2 | > 10
O=c1[nH]n(Cc2ccccc2Cl)c2ccc([N+](=O)[O-])cc12 | 57.9
COC1CC(C)C(OC)C2=CC(=O)C=C(NC(=O)/C(C)=C/C=C\C(C)C(OC(N)=O)/C(C)=C\C(C)C1OC)C2=O (stereo not drawn) | 1.68
O=C1c2ccccc2C(O)(C(=O)O)C1(O)CC=C(Cl)Cl (stereo not drawn) | > 125
COc1cc(S(=O)(=O)Nc2nc(-c3ccc(N4C(=O)CSC4c4cccs4)cc3)cs2)ccc1Cl (stereo not drawn) | 55.9
COC(=O)C(C)NP(=O)(N1CC1)N1CC1 (stereo not drawn) | > 100

system: OVCAR-5 ovarian; test: NCI-60 cell line screen, 48 h

Structure (SMILES) | TGI [µM]
O=c1[nH]n(Cc2ccccc2Cl)c2ccc([N+](=O)[O-])cc12 | > 100
CCOC(=O)CCC(NC(=O)c1ccc(CNc2nc3ccccc3nc2C(=O)OCC)cc1)C(=O)OCC (stereo not drawn) | > 100
COC1CC(C)C(OC)C2=CC(=O)C=C(NC(=O)/C(C)=C/C=C\C(C)C(OC(N)=O)/C(C)=C\C(C)C1OC)C2=O (stereo not drawn) | 17.8
O=C1c2ccccc2C(O)(C(=O)O)C1(O)CC=C(Cl)Cl (stereo not drawn) | > 125
COc1cc(S(=O)(=O)Nc2nc(-c3ccc(N4C(=O)CSC4c4cccs4)cc3)cs2)ccc1Cl (stereo not drawn) | > 100
COC(=O)C(C)NP(=O)(N1CC1)N1CC1 (stereo not drawn) | > 100
Ic1ncnc2c1ncn2C1CCCO1 (stereo not drawn) | > 100
CC12CCC3[C@@H](CC3(C)C)C(O)(CCC1=O)C2 (stereo partly drawn) | > 100
COc1cc(OCc2ccc3nc(-c4ccccc4)c(Cl)nc3c2)cc(OC)c1OC | > 100
O=[n+]1c2ccccc2n([O-])c2ccccc21 | > 100
CC(C)C(NC(=O)C(Cc1ccccc1)NC(=O)OC(C)(C)C)C(=O)NCC(=O)OCc1ccccc1 (stereo not drawn) (Boc-Phe-Val-Gly-OBn; configuration not given here) | 28.7

system: OVCAR-8 ovarian; test: NCI-60 cell line screen, 48 h

Structure (SMILES) | TGI [µM]
CCN(CC)c1cc2c3c(c1)CCCN3CCC2 | > 10
O=c1[nH]n(Cc2ccccc2Cl)c2ccc([N+](=O)[O-])cc12 | > 100
CCOC(=O)CCC(NC(=O)c1ccc(CNc2nc3ccccc3nc2C(=O)OCC)cc1)C(=O)OCC (stereo not drawn) | > 100
COC1CC(C)C(OC)C2=CC(=O)C=C(NC(=O)/C(C)=C/C=C\C(C)C(OC(N)=O)/C(C)=C\C(C)C1OC)C2=O (stereo not drawn) | 18.3
O=C1c2ccccc2C(O)(C(=O)O)C1(O)CC=C(Cl)Cl (stereo not drawn) | > 125
COc1cc(S(=O)(=O)Nc2nc(-c3ccc(N4C(=O)CSC4c4cccs4)cc3)cs2)ccc1Cl (stereo not drawn) | > 100

Reference: PubChem BioAssay (NCI)
